# Data from patent publication US6416753B1, “Method for modulating apoptosis” (The General Hospital Corporation, priority 1996, dated 2002).
# What was measured:
# [1] = system: HeLa cells; assay: HeLa cell death induced by TNF-α and cycloheximide; assay type: cell-based; details: data not shown
# [2] = system: COS cells; assay: Cell death of COS cells transfected with Ice-lacZ / Ich-1L-lacZ / proIL-1β, round blue cells scored; assay type: cell-based
# Experimental: COS cells were plated (2×10^4) in 6-well plates in DMEM with 10% FCS. After 12 hours the wells were washed with serum and antibiotic free medium, and transfected using lipofectamine with either Ice-lacZ, Ich-1L-lacZ, βactin-lacZ(1 μg) or with proIL-1β (0.5 μg) for 3 hours. The sequence for Ich-1L is shown in FIG. 7 and the sequences of human ICE and pro- IL-1β are found respectively in Thornsberry et al., Nature 356:768-774 (1992) and in J. Immunol. 137:3644-3648, 1986. The medium was then removed and DMEM with 10% FCS added. IL-1Ra (40 ng/ml) was then added to the appropriate wells, and after one hour IL-1β (100 ng/ml) was added. X-gal reaction was performed 36 hours following the transfection and percentage of round blue (dead) cells were scored (Miura, M., et al., Cell 75: 653 (1993))
# [3] = system: L929 cells; assay: TNF-α induced cell death of L929 cells, trypan blue exclusion; assay type: cell-based; details: IL-1Ra 40 ng/ml
# Experimental: After 12 hours, the cells were washed 3 times with serum free DMEM, and hydroxyurea (HU) (2.5 mM) (Sigma, St. […] Natl. Acad. Sci. U.S.A. 91: 3754 (1994)). After five hours, IL-1Ra (40 ng/ml) was added to the appropriate wells, and one hour later either TNF-α or mature IL1β were added. Twenty-four hours later, IL-1Ra was again added to the appropriate wells, and cell death was evaluated by trypan blue exclusion 60 hours after the initial addition of HU. Each condition was done three times in duplicate and 200 cells counted per well. For the photographs cells were grown on 2 well slides, and for nuclear morphology determination cells were fixed in 4% paraformaldehyde and incubated with Hoechst dye #33258 (10 μg/ml) (Sigma, St. Louis, Mo.).
# [4] = system: HeLa cells; assay: Mature IL-1β induced cell death of hydroxyurea (G1/S) arrested HeLa cells; assay type: cell-based; details: G1/S phase arrested HeLa cells
# Experimental: (§1) HeLa, HeLa/CrmA, and L929 cells were seeded (2×10^4) in a 24 well plate and grown overnight in DMEM with 10% FCS. After 12 hours, the cells were washed 3 times with serum free DMEM, and hydroxyurea (HU) (2.5 mM) (Sigma, St. Louis, Mo.) was added to the HeLa and HeLa/CrmA cells Meikrantz, W., et al., Proc. Natl. Acad. Sci. U.S.A. 91: 3754 (1994)). After five hours, IL-1Ra (40 ng/ml) was added to the appropriate wells, and one hour later either TNF-α or mature IL1β were added. Twenty-four hours later, IL-1Ra was again added to the appropriate wells, and cell death was evaluated by trypan blue exclusion 60 hours after the initial addition of HU. Each condition was done three times in duplicate and 200 cells counted per well. For the photographs cells were grown on 2 well slides, and for nuclear morphology determination cells were fixed in 4% paraformaldehyde and incubated with Hoechst dye #33258 (10 μg/ml) (Sigma, St. Louis, Mo.).
# [5] = system: cerebral infarct; details: rat model; Relton & Rothwell 1992; cited from earlier work
# [6] = system: DRG neurons; assay: Trophic factor deprivation of primary DRG neurons, healthy neurons counted; assay type: cell-based, mouse; details: for Inhibition of trophic factor withdrawal-induced apoptosis: 100 ng/ml
# Experimental: Neuronal trophic factor deprivation was assayed as follows. Post-natal day 1 mouse DRG neurons were isolated, dissociated with trypsin for one hour at 37° C., and plated in a 8 camber poly-lysine/laminin (Sigma, St. Louis, Mo.) coated slide. Wells were seeded at approximately 1000 neurons/well (8 wells/mouse). Neurons were cultured in Ham's nutrient F-12 supplemented with 20% FCS (Biowhittaker, Walkesvill, Md.), NGF (200 ng/ml) (Sigma, St. Louis, Mo.), BDNF (100 ng/ml) (Preprotech, Rocky Hill, N.J.), glutamine (2 mM), and penicillin/streptomycin. The medium was replaced daily with either trophic factor containing medium (TF(+))=20% FCS and NGF (200 ng/ml), or trophic factor deficient medium, TF(−)=serum and NGF-free medium in the presence of saturating concentration of mouse NGF monoclonal antibody (100 ng/ml) (Boehringer Mannheim, Indianapolis, Ind.), and IL-IRA (100 ng/ml unless otherwise indicated in the text). Healthy neurons were counted under a phase contrast microscope 24 and 48 hours following the media change.
# [7] = system: HeLa cells; assay: TNF-α induced cell death of hydroxyurea (G1/S) arrested HeLa cells; assay type: cell-based; details: HU treated, G1/S phase arrested HeLa cells; IL-1Ra 40 ng/ml
# Experimental: as §1
# [8] = target: T1, IL-1 receptor (Homo sapiens, UniProt P14778); assay: Inhibition of 125I IL-1β receptor binding in HeLa cells; details: IL-1Ra added for 2 hrs at 37° C.
# T1 construct: endogenous in cells; host or cells: HeLa cells
# T1 sequence (P14778 18-569): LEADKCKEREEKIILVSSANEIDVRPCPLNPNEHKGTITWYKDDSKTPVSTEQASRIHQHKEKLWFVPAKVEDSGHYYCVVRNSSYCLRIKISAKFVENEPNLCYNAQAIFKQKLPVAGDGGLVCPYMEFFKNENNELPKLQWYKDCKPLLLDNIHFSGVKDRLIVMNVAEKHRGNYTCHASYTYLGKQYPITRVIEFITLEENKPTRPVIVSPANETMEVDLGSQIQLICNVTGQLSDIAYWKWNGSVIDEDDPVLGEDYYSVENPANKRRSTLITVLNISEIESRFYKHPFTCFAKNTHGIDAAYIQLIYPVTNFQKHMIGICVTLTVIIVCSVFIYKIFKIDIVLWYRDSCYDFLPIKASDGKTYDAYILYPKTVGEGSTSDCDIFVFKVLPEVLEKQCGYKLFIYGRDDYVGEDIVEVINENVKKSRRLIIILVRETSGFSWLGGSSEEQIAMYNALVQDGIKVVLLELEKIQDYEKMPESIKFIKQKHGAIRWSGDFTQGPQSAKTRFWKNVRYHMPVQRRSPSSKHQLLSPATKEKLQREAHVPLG
# Experimental: (§2) Hypoxia-induced apoptosis was studied as follows. HeLa and HeLa/CrmA cells (Miura, M., et al., Proc. Natl. Acad. Sci. USA. 92:8318-8322, 1995) were seeded in 35 mm dishes at a density of 6×10^4/dish in DMEM/10% FCS and grown overnight. The medium was then changed and factors were added (IL-1Ra, R & D, Minneapolis, Minn.), IL-1 antibody (Calbiochem, San Diego, Calif.), or IL-1 type-1 receptor antibody (R & D, Minneapolis, Minn.). Dishes were placed in an anaerobic chamber with a BBL GasPack Plus (Becton-Dickenson, USA), which reduced the oxygen concentration to less than 100 p.p.m. within 90 minutes. After 16 hours, cells were removed from the chamber, immediately trypsinized and scored for viability by trypan blue exclusion. Inhibition of ^125I IL-1β binding by IL-1Ra which was added for 2 hrs at 37° C. After addition of BSA (1 mg/ml) to the medium, cells were incubated at 4° C. for 15 minutes, and then ^125IL-1β (100 ng/ml) was added at 4° C. for 1 hr. For detection of ^125IL-1β binding, cells were treated with 50 mM glycine-HCl, pH 2.6 for 1 min, and quantitated by γ-counting.
# [9] = system: HeLa cells; assay: Hypoxia-induced apoptosis of HeLa cells, viability by trypan blue exclusion; assay type: cell-based
# Experimental: as §2
# Hypoxia was produced as described in Example 1. IL-1β (100 ng/ml) was added as the cells were placed into the hypoxia chamber (90 min. are required to reach oxygen concentrations of 100 p.p.m.). […] Cells were then treated as above with glycine and radioactivity scored.
# [10] = system: HeLa and L929; assay: Apoptosis of healthy proliferating cells exposed to mature IL-1β alone; assay type: cell-based; details: most healthy proliferating cells including HeLa and L929
# [11] = target: T1, IL-1 receptor; assay: IL-1 receptor binding assay (receptor down-regulation) in HeLa cells; assay type: cell-based; details: 100 ng/ml 125I IL-1β
# Experimental: Hypoxia was produced as described in Example 1. IL-1β (100 ng/ml) was added as the cells were placed into the hypoxia chamber (90 min. are required to reach oxygen concentrations of 100 p.p.m.). IL-1 receptor binding assay: HeLa cells (10^6) were seeded in 10 cm dishes and grown overnight. Media was then exchanged containing 1 mg/ml of BSA and 100 ng/ml of ^125I IL-1β at 4° C. for 1 hr. After washing twice with cold medium, the cells were incubated with fresh warm medium at 37° C. for 0, 30, 60 and 120 minutes. Cells were then treated as above with glycine and radioactivity scored.
# [12] = target: IL-1 type-1 receptor on HeLa cells (UniProt P14778); assay: cell-based or functional assay
substance,measurement,setting,value
"IL-1Ra: a naturally occurring cytokine which binds to the IL-1 receptor, blocking IL-1 mediated signal transduction",Protection from death induced by TNF-α and cycloheximide,[1],protected
same,"Inhibition of death of COS cells expressing Ice-lacZ or Ich-1L-lacZ with proIL-1β, or with extracellular TNF-α or mature IL-1β",[2]; IL-1Ra 40 ng/ml,significantly inhibited
same,Protection from TNF-α induced death,[3],up to 64.9%
same,Inhibition of mature IL-1β induced cell death,[4],inhibited
same,Reduction of cerebral infarct size following ischemia,[5],50%
same,Inhibition of neuronal apoptosis,"[6]; 40 ng/ml, 24 hours",43.5%
same,Inhibition of trophic factor withdrawal-induced apoptosis,[6]; 24 hours,69.2%
same,Inhibition of trophic factor withdrawal-induced apoptosis,[6]; 48 hours,37.8%
same,Inhibition of TNF-α induced HeLa cell death,[7],56.0%
same,Blocking of 125I-IL-1β binding,[8],blocks
same,Inhibition of hypoxia-induced cell death,"[9]; HeLa cells, 16 hours hypoxia",inhibited hypoxia-induced cell death
"IL-1β: mature 17.5 kD interleukin-1β, cytokine produced by ICE cleavage of prointerleukin-1β",Induction of apoptosis in COS cells by the exogenous cytokine alone,[2]; COS cells without Ice/Ich-1L transfection,did not induce apoptosis
same,Induction of cell death in Ice-lacZ or Ich-1L-lacZ transfected COS cells,"[2]; extracellular cytokine, 36 hours after transfection",efficiently induced cell death
same,Cell death induced by exogenous mature IL-1β,[4]; 100 ng/ml,83.7%
same,Induction of apoptosis of healthy proliferating cells,[10],does not induce apoptosis
same,Down-regulation of the IL-1 receptor,[11],significantly down-regulated
same,Survival of HeLa cells preincubated with exogenous IL-1β under hypoxia,"[9]; IL-1β 100 ng/ml added as cells were placed into the hypoxia chamber, control 10.1%",58.7%
mature IL-1β (from UniProt P01584 117-269) (ligand),cell death of G1/S phase arrested (HU treated) HeLa cells treated with exogenous mature IL-1β,[12],83.7%
same,survival of HeLa cells under hypoxia after preincubation with exogenous IL-1β (100 ng/ml),[12],58.7%
